The record followed here is PubChem BioAssay (NCI).

Common to all, as to assay: growth of human tumour cells (NCI), 48 h
The subject of assay [1] is SK-OV-3 ovarian.
Assay [2] relates to UO-31 renal.
Assay [3] deals with TK-10 renal.
Assay [4] has as its system HCC-2998 colon.
The subject of assay [5] is SF-268 CNS.
Assay [6] has as its system NCI-H522 lung.
Assay [7] relates to SW-620 colon.
Assay [8] relates to NCI-H460 lung.
The test system of assay [9] is MOLT-4 leukemia.
For assay [10], the system named is HOP-92 NSCLC.
Assay [11] has as its system SF-295 CNS.
Assay [12] relates to M14 melanoma.
In assay [13] the test system is HT29 colon.
Assay [14] relates to SNB-19 CNS.
Assay [15] has as its system LOX IMVI melanoma.
Assay [16] has as its system OVCAR-5 ovarian.
Assay [17] has as its system A498 renal.
Assay [18] has as its system MDA-MB-435.
For assay [19], the system named is MDA-MB-231 breast.

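These data come from cells grown in 96-well plates and exposed to compound for 48 hours at five concentrations. At the TGI there is no net growth.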

For `COc1ccc(CNC2=C(NC(C)=O)C(=O)c3ccccc3C2=O)cc1`, the TGI in assay [1] is more than 50 µM; in assay [2] it was 40.2 µM; in [3] it was 18.1 µM; in assay [4], more than 50 µM; in assay [5], more than 50 µM; in assay [6], 5.17 µM. Also, the TGI in [7] is 14.9 µM; in assay [8] it was more than 50 µM; in assay [9] it was 17.7 µM; in assay [10], 13 µM; in assay [11], more than 50 µM; in assay [12], more than 50 µM. Besides, the TGI was more than 50 µM in assay [13], more than 50 µM in assay [14] and 18.7 µM in assay [15].
`O=C(NCc1ccccc1)c1cc2cc(O)c(O)cc2cn1`: the TGI is more than 100 µM in assay [1]; 56.6 µM in [2]; more than 100 µM in assay [3]; 79.6 µM in assay [16]; more than 100 µM in assay [4]; 75.1 µM in [5]. In addition, the TGI in assay [6] is more than 100 µM; in [7] it was more than 100 µM; in [8] it was 91.6 µM; in assay [10], more than 100 µM; in assay [11], more than 100 µM; in assay [12], 43.1 µM. Moreover, the TGI was 70.4 µM in assay [13], more than 100 µM in [14], 66.4 µM in [15] and more than 100 µM in [17].
For the molecule `O=C1c2ccccc2-c2nc3ccc(O)cc3n21`, the TGI in [1], in assay [2], in assay [3], in [16], in assay [4] and in assay [5] was more than 100 µM throughout. Moreover, the TGI in [6], in assay [7], in [8], in assay [9], in [10] and in assay [11] was more than 100 µM in each case. For the same molecule, the TGI in assay [12], in [13] and in assay [14] was more than 100 µM throughout.
For the molecule `CC1(C)C(O)C[C@]23CCC[C@](C)(C[C@@H](O)C12)C3` (stereo partly drawn), the TGI in assay [1], in assay [2], in assay [3], in assay [16], in assay [5] and in assay [6] was more than 100 µM throughout. Moreover, the TGI in assay [18], in assay [7], in [8], in assay [9], in assay [10] and in assay [11] was more than 100 µM in each case. In addition, the TGI in assay [12], in assay [13], in [14] and in assay [15] was more than 100 µM in each case.
As for `O=C(NC1CCC(=O)N1C(=O)OCc1ccccc1)OCc1ccccc1` (stereo not drawn), the TGI in assay [1], in assay [2], in assay [3], in [16], in assay [4] and in assay [5] was more than 100 µM in each case. The TGI in [6], in [18], in assay [7], in [8], in [9] and in assay [10] was more than 100 µM in each case. Moreover, the TGI in [19], in [11], in assay [12], in [13] and in [14] was more than 100 µM throughout.
For the molecule `O=C(O)C(Cc1c[nH]c2ccccc12)N=Cc1nc(-c2ccccc2)oc1O` (stereo not drawn), the TGI in assay [1], in [2], in assay [3], in [16], in assay [4] and in [5] was more than 100 µM throughout. In addition, the TGI in [6], in [7], in [8], in [9], in [10] and in assay [11] was more than 100 µM throughout. Further, the TGI in [12], in assay [13], in assay [14], in [15] and in [17] was more than 100 µM throughout.
In the case of `O=C(Cn1cc(-c2ccccc2)nn1)NC1CCCC1`, the TGI in [3], in assay [16], in [4], in assay [5], in assay [6] and in [18] was more than 100 µM in each case. Also, the TGI in assay [7], in assay [8], in assay [9], in assay [10], in [19] and in [11] was more than 100 µM in each case. For the same molecule, the TGI in assay [12], in [13], in assay [14] and in assay [15] was more than 100 µM throughout.
With `C[C@]12CCC(=O)C=C1CC[C@@H]1[C@@H]2CC[C@]2(C)C(=O)[C@H](n3ccnc3)C[C@@H]12`, the TGI in assay [2], in assay [3], in assay [16], in assay [5], in assay [6] and in assay [18] was more than 100 µM in each case. Besides, the TGI in assay [7], in assay [8], in assay [9], in [10], in assay [19] and in [11] was more than 100 µM throughout. Further, the TGI in assay [12], in assay [13], in assay [14], in assay [15] and in [17] was more than 100 µM throughout.
Turning to `COc1ccc(NC(=O)C(=O)C2CNC(=O)NC2=O)c(OC)c1` (stereo not drawn), the TGI in assay [1], in assay [2], in assay [3], in [16], in assay [4] and in [5] was more than 100 µM each time. Also, the TGI in assay [6], in [7], in [8], in [9], in [10] and in [11] was more than 100 µM in each case. The TGI in [12], in assay [13], in [14] and in [15] was more than 100 µM each time.
As for `COc1ccccc1C(C1=C(O)COC1=O)c1cc2c(cc1OC(C)=O)OCO2` (stereo not drawn), the TGI in assay [1], in assay [2], in assay [3], in [16], in assay [4] and in [5] was more than 100 µM in each case. The TGI in assay [18], in [7], in assay [8], in assay [9], in assay [19] and in [11] was more than 100 µM each time. The TGI in assay [12], in assay [13], in assay [14], in assay [15] and in [17] was more than 100 µM throughout.
Turning to `Cc1ccc([N+](=O)[O-])cc1NC(=O)C(=O)Cc1occc(=O)c1O`, the TGI in assay [1], in assay [2], in assay [3], in [16], in [4] and in [5] was more than 100 µM throughout. Also, the TGI in assay [6], in assay [7], in [8], in assay [10], in [11] and in assay [13] was more than 100 µM each time. The TGI in assay [14], in assay [15] and in [17] was more than 100 µM each time.
With `COc1ccc(-c2c(C#N)c(-c3ccc(C)cc3)n(NS(=O)(=O)c3ccccc3)c(=O)c2C#N)cc1`, the TGI in [1], in assay [3], in [16], in [4], in assay [5] and in assay [6] was more than 100 µM throughout. Moreover, the TGI is more than 100 µM in assay [18]; more than 100 µM in assay [7]; more than 100 µM in [8]; 60.4 µM in [9]; more than 100 µM in assay [10]; more than 100 µM in [19]. For the same molecule, the TGI in assay [11], in assay [12], in [13], in assay [14], in [15] and in assay [17] was more than 100 µM in each case.
Take `CCOC(=O)C(Cc1ccccc1)NC(=O)c1ccc(N=NN(C)C)cc1` (stereo not drawn): the TGI in assay [1], in assay [2], in assay [3], in [16], in [4] and in [5] was more than 100 µM in each case. Further, the TGI in assay [6], in assay [7], in assay [8], in assay [9], in assay [11] and in [12] was more than 100 µM in each case. Moreover, the TGI in assay [13], in [14], in assay [15] and in [17] was more than 100 µM each time.
In the case of `C=CCNC(=S)N1c2ccccc2NC(=O)CC1C` (stereo not drawn), the TGI in assay [2], in assay [3], in assay [16], in assay [5], in assay [6] and in assay [7] was more than 100 µM each time. The TGI in assay [8], in [9], in assay [11], in assay [12], in [13] and in [14] was more than 100 µM in each case. The molecule further registered a TGI in assay [15] of more than 100 µM.
For `COC(=O)N/N=C(/CCN1CCCC1)CC(c1ccccc1)c1c(O)c2ccccc2oc1=O` (stereo not drawn), the TGI in assay [1], in [2], in assay [3], in assay [16], in assay [4] and in assay [5] was more than 100 µM each time. The TGI in [6], in assay [7], in [8], in assay [9], in assay [11] and in [12] was more than 100 µM throughout. The TGI in assay [13], in assay [14], in assay [15] and in assay [17] was more than 100 µM in each case.
On to `COC1C=CC(C(=O)[N+]2=Cc3[nH]c4ccccc4c3CC2)O1` (stereo not drawn), for which the TGI in assay [1], in assay [2], in assay [3], in [16], in assay [4] and in assay [5] was more than 100 µM throughout. Further, the TGI in assay [6], in [7], in assay [8], in assay [9], in [10] and in [11] was more than 100 µM each time. For the same molecule, the TGI in [12], in assay [13], in assay [14], in [15] and in [17] was more than 100 µM each time.
Turning to `OCC1NCC(O)C(O)C1O` (stereo not drawn), the TGI in assay [1], in assay [2], in [3], in assay [16], in [4] and in assay [5] was more than 100 µM in each case. Moreover, the TGI in [6], in assay [18], in assay [7], in assay [8], in [9] and in assay [10] was more than 100 µM in each case. The TGI in assay [12], in assay [13], in assay [14] and in assay [17] was more than 100 µM in each case.
